Here are results for 4 compounds from patent US20090215760A1, “SYNERGISTIC INSECTICIDE MIXTURES” (priority 2004, published 2009).

What all share (type): in vivo
The subject of test [1] is Plutella xylostella, normal sensitive strain. Nature of the test: Plutella xylostella test (normal sensitive strain), cabbage leaf dip. The conditions noted are these: single active compound. The source says: (§1) The action expected for a given combination of two active components can be calculated as follows (cf. Colby, S. R., “Calculating Synergistic and Antagonistic Responses of Herbicide Combinations”, Weeds 15, pages 20-22, 1967):
(§2) if • X stands for the death rate expressed as % of the untreated controls on application of active component A at an applied amount of m ppm • Y for the death rate expressed as % of the untreated controls on application of active component B at an applied amount of n ppm • E for the death rate expressed as % of the untreated controls on application of active components A and B at applied amount of m and n ppm • then
(§3) If the actual insecticidal death rate is greater than calculated, the combination is superadditive in its death rate, i.e. there is a synergistic effect. In this case the death rate actually observed must be greater than the value for the expected death rate (E) calculated from the above equation.
Plutella xylostella Test (Normal Sensitive Strain)
(§4) To prepare a suitable formulation of the active material 1 part by weight of the active material is mixed with the given amounts of solvent and emulsifier and the concentrate is diluted to the desired concentration with water containing the emulsifier.
Cabbage leaves (Brassica oleracea) are treated by dipping into the active mixture formulation at the desired concentration and infected with the caterpillar of the diamondback (cabbage) moth (Plutella xylostella, normal sensitive strain) while the leaves are still moist.
(§5) After the desired time the death rate is calculated as %, where 100% means that all caterpillars were killed, 0% that no caterpillars were killed. The death rates are calculated by the Colby equation.

A further test concerns Myzus persicae. Nature of the test: Myzus persicae test, cabbage leaf dip. The conditions noted are these: single active compound.
Source text: as §1, §2, §3, §4
Cabbage leaves (Brassica oleracea) which are highly infected by the green peach aphid (Myzus persicae) are treated by dipping into the active mixture formulation of the desired concentration.
After the desired time the death rate is calculated as %, where 100% means that all aphids were killed, 0% that no aphids were killed. The death rates were calculated by the Colby equation.

The next test concerns Spodoptera frugiperda. As to the kind of experiment: Spodoptera frugiperda test, cabbage leaf dip. To be noted: 4 ppm, single active compound.
Source text: as §1, §2, §3
Spodoptera frugiperda Test […]
as §5

Setting [2] is: 4 ppm, 6 d (Table B, clothianidin series).

`CC[S+]([O-])c1c(C#N)nn(-c2c(Cl)cc(C(F)(F)F)cc2Cl)c1N` (stereo not drawn) [Ethiprole, ethiprole]: the “Death rate in % after 6 d” value in test [1] (4 ppm) worked out at 0%; with Myzus persicae (0.8 ppm, 6 d (Table B, imidacloprid series)) it was 0%; in the test with Myzus persicae (setting [2]), 0%; in the test with Myzus persicae (4 ppm, 6 d (Table B, thiacloprid series)) it was 10%; in the test with Spodoptera frugiperda, 0%. The “Death rate in % after 4 d” value in test [1] (20 ppm) is reported as 35%.
`N#C/N=C1\SCCN1Cc1ccc(Cl)nc1` [Thiacloprid]: the “Death rate in % after 4 d” value in test [1] (4 ppm) is recorded as 0%. The “Death rate in % after 6 d” value with Myzus persicae (0.8 ppm, 6 d (Table B, thiacloprid series)) came out at 15%.
For the compound `CN/C(=N\[N+](=O)[O-])NCc1cnc(Cl)s1` [Clothianidin], the “Death rate in % after 6 d” value in test [1] (4 ppm) is reported as 10%; in the test with Myzus persicae (setting [2]), 0%.
As for `O=[N+]([O-])/N=C1\NCCN1Cc1ccc(Cl)nc1` [Imidacloprid], the “Death rate in % after 6 d” value is 0% in the test on Myzus persicae (0.16 ppm, 6 d (Table B, imidacloprid series)) and 15% in the test with Spodoptera frugiperda.
